Measured values from patent USRE46942E1, “4-piperidinyl compounds for use as tankyrase inhibitors” (NOVARTIS AG, priority 2011, dated 2018).

Tests used:
[1] = test system: Non-small lung cancer ABC-1 cells; assay: Cellular proliferation assay (CellTiter-Glo); type: cell-based; conditions: Homo sapiens, 72 h, 3 days of compound treatment
Procedure: Non-small lung cancer ABC-1 cells were plated at 5000 cells per well in 96-well plates and treated with 8 serial compound dilutions starting from 10 μM as the highest concentration. Viable cells were measured after 3 days of compound treatment using the CellTiter-Glo assay (Promega, G7570). Assay was performed following the manufacture protocol.

[2] = test system: Axin2 protein in colorectal cell line SW480; assay: Cellular ELISA assay for stabilizing the Axin2 protein; type: cell-based; conditions: Homo sapiens; SW480 cells, 24 hrs; read-out: Axin AC50
Procedure: Compound activity in stabilizing the Axin2 protein was measured by Sandwich Enzyme-Linked Immuosorbent (ELISA) assay in the colorectal cell line SW480. 30,000 SW480 cells were seeded per well in 96-well plate and incubated overnight prior to compound treatment. […] Cells were then washed with 100 μL of cold Phosphate Buffer Saline (PBS), and lysed in 125 μl of cold 1× lysis buffer (Cell Signaling Technology, 9803) supplemented with Protease inhibitor (Roche, 11836170) and Phosphatase inhibitors (Sigma, P2850, P5726). […] After blocking, plates were then washed three times with 300 μl/well of wash solution. 100 μL of prepared SW480 cell lysate was then added to each well and incubated at room temperature for 2 hours while shaking gently. After washing, 100 μL of Biotinylated anti-Axin2 antibody (CST, 2151) was added to each well and incubated room temperature for 2 hours. 100 μL of Streptavidin-HRP (R&D systems, DY998) diluted 1:200 in 1% BSA/PBS was then added in each well and incubate for 30 mins at R/T in the dark. Signal was detected by Chemiluminescence (Pierce SuperSignal ELISA Femto #3704), and measured on PerkinElmer Wallac 1420 plate reader.

[3] = test system: Wnt ligand-induced signaling in HEK293 cells; assay: Wnt-responsive Super-TOp-Flash (STF) luciferase reporter gene assay; type: cell-based; conditions: Homo sapiens, Wnt3A condition medium
Procedure: Compound activity in inhibiting Wnt ligand-induced signaling was measured using a Wnt-responsive Super-TOp-Flash (STF) luciferase reporter gene assay in HEK293 cells. On day 1 of the assay, cells were plated at a density of 8000 cells per well of 384-well plate in 25 μl medium containing 5% fetal bovine serum (FBS). […] On the third day, the luciferase activity was measured by the Bright-Glo™ Luciferase Assay System following manufacture's protocol (Promega, E2620).

[4] = test system: Herpes Simplex Virus (HSV); conditions: cited from earlier work

| IC50 [1] [µM] | SMILES | AC50 [2] [µM] | IC50 [3] [µM] | viral growth [4] |
| --- | --- | --- | --- | --- |
| 0.049 | COc1ccc(C(=O)C2CCN([C@@H]3CCN(CC(=O)Nc4nnc5n4CCS5)C3=O)CC2)cc1 (single isomer, unassigned) [Example 34] | 0.078 ± 0.006 |  |  |
| 0.082 | COc1ccc2c(c1)CC1(CCN([C@H]3CCN(Cc4nc5c(c(=O)[nH]4)COCC5)C3=O)CC1)C2=O [Example 16, (S)-2-((3-(5-methoxy-1-oxo-1,3-dihydrospiro[indene-2,4′-piperidine]-1′-yl)-2-oxopyrrolidin-1-yl)methyl)-7,8-dihydro-3H-pyrano[4,3-d]pyrimidin-4(5H)-one] | 0.007 ± 0.001 | 0.0017 ± 0.0002 |  |
| 2 ± 0.9 | COc1ccc2c(c1)CC1(CCN([C@@H]3CCN(Cc4nc5c(c(=O)[nH]4)COCC5)C3=O)CC1)C2=O [Example 17, (R)-2-((3-(5-methoxy-1-oxo-1,3-dihydrospiro[indene-2,4′-piperidine]-1′-yl)-2-oxopyrrolidin-1-yl)methyl)-7,8-dihydro-3H-pyrano[4,3-d]pyrimidin-4(5H)-one] | 1.79 ± 0.14 | 0.396 ± 0.01 |  |
|  | Oc1nc(-c2ccc(C(F)(F)F)cc2)nc2c1CSCC2 [XAV939] |  |  | decreased viral growth |
| 1.61 | COc1ccc(C(=O)C2CCN([C@H]3CCN(CC(=O)Nc4nnc5n4CCS5)C3=O)CC2)cc1 [Example 33, N-(5,6-dihydrothiazolo[2,3-c][1,2,4]triazol-3-yl)-2-((S)-3-(4-(4-methoxybenzoyl)piperidin-1-yl)-2-oxopyrrolidin-1-yl)acetamide] | 1.34 ± 0.11 |  |  |
